Structures are written as SMILES.

Holding throughout (experiment): Protease Inhibition Assay
Test [1] concerns the target T1, Genome polyprotein [1066-1250,R1182K]/[1394-1440,K1405R,D1408E] (dengue virus type 2, UniProt P14340+P27914, D1408E/K1405R/R1182K).
T1 construct: 1066-1250; 1394-1440
The settings on record: pH 8.5; 23 °C. The protocol: (§1) All proteases were assayed by monitoring the cleavage of peptide substrate with fluorescent reporter at room temperature with a microtiter plate spectrofluorometer. Three different concentrations of inhibitors were used for calculating Ki values. Kinetic data were measured with an excitation wavelength of 390nm and emission wavelength of 460nm. From the initial velocities of the reactions Ki values were calculated by nonlinear regression method using the program EZ-fit (Perella Scientific).

Test [2] has as its target T2, Genome polyprotein [1424-1463]/[1502-1685] (West Nile virus, UniProt P06935).
T2 construct: 1424-1463; 1502-1685
T2 sequence (P06935 whole entry) 1: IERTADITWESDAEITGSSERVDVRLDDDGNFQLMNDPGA
T2 sequence (P06935 whole entry) 2: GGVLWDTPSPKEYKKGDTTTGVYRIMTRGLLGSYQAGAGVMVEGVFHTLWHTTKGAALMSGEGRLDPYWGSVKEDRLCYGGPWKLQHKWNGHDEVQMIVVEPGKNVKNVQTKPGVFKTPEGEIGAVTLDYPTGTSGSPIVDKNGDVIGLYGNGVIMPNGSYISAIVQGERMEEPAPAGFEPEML
The settings on record: pH 8.5; 23 °C. The protocol: as §1

The target in another test is T3, Serine protease 1 (Bos taurus, UniProt P00760).
T3 sequence (P00760 whole entry): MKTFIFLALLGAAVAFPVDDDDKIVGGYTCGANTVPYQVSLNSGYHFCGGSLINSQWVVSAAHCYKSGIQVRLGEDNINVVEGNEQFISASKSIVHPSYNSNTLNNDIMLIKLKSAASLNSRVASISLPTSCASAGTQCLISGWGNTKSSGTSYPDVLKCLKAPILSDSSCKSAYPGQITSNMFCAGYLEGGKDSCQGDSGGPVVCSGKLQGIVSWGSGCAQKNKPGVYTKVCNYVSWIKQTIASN
As to conditions: pH 7.6; 23 °C. The protocol:
as §1

T1 sequence (P14340 1394-1440, looked up, stated change not applied): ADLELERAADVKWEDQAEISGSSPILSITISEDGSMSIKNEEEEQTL
T1 sequence (P27914 1066-1250, looked up, stated change not applied): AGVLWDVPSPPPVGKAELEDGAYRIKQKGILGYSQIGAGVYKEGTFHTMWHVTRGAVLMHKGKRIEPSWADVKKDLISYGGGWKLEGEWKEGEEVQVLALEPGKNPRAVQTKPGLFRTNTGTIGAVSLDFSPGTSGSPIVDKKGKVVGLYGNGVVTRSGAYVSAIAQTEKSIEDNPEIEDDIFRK

For orientation: Ki means the dissociation constant of the complex between target and ligand, obtained from inhibition or displacement. Read a low Ki as a stronger hold on the target. Regarding `NC(N)=NN=C1C(=O)Nc2ccccc21` [guanidine, 4], the Ki in test [1] came out at 23 µM; in test [2] it was 16 µM; on Serine protease 1, 4 µM.

Turning to `NC(N)=NNc1ccc(NNC(N)N)cc1` [biguanidine, 3], the Ki in test [1] worked out at 1780 µM; in test [2] it was 1090 µM; on Serine protease 1, 51 µM.

With `N=C(N)NN=CC=NN=C(N)N` [biguanidine, 2], the Ki in test [1] turned out to be 423 µM; in test [2], 337 µM; at Serine protease 1 it was 155 µM.

Take `NC(N)=NN=Cc1ccc(C=NN=C(N)N)cc1` [biguanidine, 1]: the figures for the Ki (in test [1]; in test [2]; at Serine protease 1) were 44 µM, 35 µM and 87 µM, respectively.

As for `Cc1ccc(C(=NN=C(N)N)P(O)O)cc1` [guanidine, 5], the inhibitory constant (Ki) in test [1] was 14 µM; in test [2], 13 µM; on Serine protease 1, 3.2 µM.

The record behind these values is BindingDB's records for doi:10.1016/j.bmc.2004.09.036 (University of Alabama At Birmingham, 2005).
